System: cucumber seedlings
Experiment: Test A: phytotoxicity to the cucumber seedlings of the test units
Format: in vivo
Conditions: 500 ppm active ingredient applied to soil
Description: Control of the southern root-knot nematode (Meloidogyne incognita) through contact and/or systemic means was evaluated in test units consisting of small open containers filled with a sandy soil mixture and cucumber seedlings. Test compounds were formulated using a solution containing 50% acetone and 50% water. […] Each test was replicated 3 times. After treatment, the test units were allowed to dry for 1 hour, after which time about 400 second-stage juvenile (J2) larvae and 800 eggs were pipetted into the soil. The test units were held at 27° C. and watered as needed for 7 days. Nematocidal efficacy was determined by the amount of root gall formation observed when compared to an untreated control. No gall formation was indicative of 100% nematode control. […] No nematode control rating was given to compounds showing significant phytotoxicity.

Row | Compound | phytotoxicity
1 | CC(NC(=O)c1ccoc1Cl)C1CC1 (racemic) [Compound 11] | no significant phytotoxicity
2 | CC(NC(=O)c1sccc1C(C)(C)C)C(C)(C)C (single isomer, unassigned) [Compound 92] | no significant phytotoxicity
3 | CCC(C)C(C)NC(=O)c1ccoc1C (stereo not shown) [Compound 1] | no significant phytotoxicity
4 | Cc1occc1C(=O)N(C)C(C)C1CC1 (stereo not shown) [Compound 2] | no significant phytotoxicity
5 | Cc1occc1C(=O)NC(C)C [Compound 3] | no significant phytotoxicity
6 | Cc1occc1C(=O)NC(C)C(C)C (stereo not shown) [Compound 4] | no significant phytotoxicity
7 | CCCC(C)NC(=O)c1ccoc1C (stereo not shown) [Compound 5] | no significant phytotoxicity
8 | Cc1occc1C(=O)NC(C)C1CC1 (stereo not shown) [Compound 6] | no significant phytotoxicity
9 | Cc1occc1C(=O)NC(C)(C)C1CC1 [Compound 7] | no significant phytotoxicity
10 | CC(C)(NC(=O)c1ccoc1Cl)C1CC1 [Compound 8] | no significant phytotoxicity
11 | CC(C)C(C)(C)NC(=O)c1ccoc1Cl [Compound 10] | no significant phytotoxicity
12 | COCC(C)(C)NC(=O)c1ccoc1Cl [Compound 12] | no significant phytotoxicity
13 | CSCC(C)(C)NC(=O)c1ccoc1Cl [Compound 14] | no significant phytotoxicity
14 | CCC(C)NC(=O)c1ccoc1Cl (stereo not shown) [Compound 16] | no significant phytotoxicity
15 | CCCC(C)NC(=O)c1ccoc1Cl (stereo not shown) [Compound 17] | no significant phytotoxicity
16 | CC(C)(C)CC(C)(C)NC(=O)c1ccoc1Cl [Compound 18] | no significant phytotoxicity
17 | CC(C)CC(C)NC(=O)c1ccoc1Cl (stereo not shown) [Compound 19] | no significant phytotoxicity
18 | CC(NC(=O)c1ccoc1Cl)C1CCCC1 (stereo not shown) [Compound 20] | no significant phytotoxicity
19 | CC(NC(=O)c1ccoc1Cl)C1CCCCC1 (stereo not shown) [Compound 21] | no significant phytotoxicity
20 | CC(NC(=O)c1ccoc1Cl)C1(C)CC1 (stereo not shown) [Compound 22] | no significant phytotoxicity
21 | CC(NC(=O)c1ccoc1Cl)C1CCC1 (stereo not shown) [Compound 23] | no significant phytotoxicity

Row | Compound | phytotoxicity
22 | CC(NC(=O)c1ccoc1Cl)C(F)(F)F (stereo not shown) [Compound 24] | no significant phytotoxicity
23 | CC(C)C(C)NC(=O)c1ccoc1Cl (stereo not shown) [Compound 26] | no significant phytotoxicity
24 | CC(NC(=O)c1ccoc1Cl)C(C)(C)C (stereo not shown) [Compound 27, 2-chloro-N-(1,2,2-trimethylpropyl)-3-furancarboxamide] | no significant phytotoxicity
25 | CCCCCC(C)NC(=O)c1ccoc1Cl (stereo not shown) [Compound 29] | no significant phytotoxicity
26 | CC(C)CCCC(C)NC(=O)c1ccoc1Cl (stereo not shown) [Compound 30] | no significant phytotoxicity
27 | CC(NC(=O)c1ccoc1Br)C1CC1 (stereo not shown) [Compound 32] | no significant phytotoxicity
28 | CC(C)C(C)NC(=O)c1ccoc1Br (stereo not shown) [Compound 33] | no significant phytotoxicity
29 | CCCC(C)NC(=O)c1ccoc1Br (stereo not shown) [Compound 34] | no significant phytotoxicity
30 | CC(NC(=O)c1ccoc1Br)C(C)(C)C (stereo not shown) [Compound 35] | no significant phytotoxicity
31 | Cc1occc1C(=O)N[C@H](C)C1CC1 [Compound 36] | no significant phytotoxicity
32 | Cc1occc1C(=O)N[C@@H](C)C1CC1 [Compound 37] | no significant phytotoxicity
33 | Cc1occc1C(=O)N[C@H](C)C(C)(C)C [Compound 39] | no significant phytotoxicity
34 | C[C@H](NC(=O)c1ccoc1Cl)C(C)(C)C [Compound 40, 2-chloro-N-[(1S)-1,2,2-trimethylpropyl]-3-furancarboxamide] | no significant phytotoxicity
35 | C[C@H](NC(=O)c1ccoc1Br)C(C)(C)C [Compound 42] | no significant phytotoxicity
36 | CC(C)[C@H](C)NC(=O)c1ccoc1Cl [Compound 43] | no significant phytotoxicity
37 | C[C@@H](NC(=O)c1ccoc1Cl)C1CC1 [Compound 45, 2-chloro-N-[(1R)-1-cyclopropylethyl]-3-furancarboxamide] | no significant phytotoxicity
38 | Cc1occc1C(=O)NC(C1CC1)C1CC1 [Compound 46] | no significant phytotoxicity
39 | Cc1occc1C(=O)NC1(C2CC2)CC1 [Compound 47] | no significant phytotoxicity
40 | Cc1ccsc1C(=O)NC(C)C(C)C (stereo not shown) [Compound 48] | no significant phytotoxicity
41 | CC(NC(=O)c1sccc1Br)C1CC1 (stereo not shown) [Compound 50] | no significant phytotoxicity
42 | Cc1ccsc1C(=O)NC(C1CC1)C1CC1 [Compound 52] | no significant phytotoxicity

Row | Compound | phytotoxicity
43 | CCC(NC(=O)c1ccoc1Cl)C1CC1 (stereo not shown) [Compound 53] | no significant phytotoxicity
44 | CC(NC(=O)c1ncsc1I)C1CC1 (stereo not shown) [Compound 56] | no significant phytotoxicity
45 | CSc1ccsc1C(=O)NC(C)C1CC1 (stereo not shown) [Compound 58] | no significant phytotoxicity
46 | Cc1ncc(C(=O)NC(C)C2CC2)s1 (stereo not shown) [Compound 60] | no significant phytotoxicity
47 | CC(NC(=O)c1ncsc1Cl)C1CC1 (stereo not shown) [Compound 62] | no significant phytotoxicity
48 | CC(NC(=O)c1ncsc1Br)C1CC1 (stereo not shown) [Compound 63] | no significant phytotoxicity
49 | CC(NC(=O)c1sccc1C(F)(F)F)C1CC1 (stereo not shown) [Compound 65] | no significant phytotoxicity
50 | CCC(NC(=O)c1ccoc1C)C1CC1 (stereo not shown) [Compound 67] | no significant phytotoxicity
51 | Cc1ncsc1C(=O)NC(C)C1CC1 (stereo not shown) [Compound 70] | no significant phytotoxicity
52 | CC(NC(=O)c1ncsc1C(F)(F)F)C1CC1 (stereo not shown) [Compound 72] | no significant phytotoxicity
53 | C[C@@H](NC(=O)c1ccoc1Br)C1CC1 [Compound 74] | no significant phytotoxicity
54 | CC(C)[C@@H](C)NC(=O)c1ccoc1Cl [Compound 75] | no significant phytotoxicity
55 | CC[C@H](C)NC(=O)c1ccoc1Cl [Compound 77] | no significant phytotoxicity
56 | Cc1occc1C(=O)NC(C)CC(C)(C)C (stereo not shown) [Compound 80] | no significant phytotoxicity
57 | CC(C)C(C)NC(=O)c1sccc1C(C)(C)C (stereo not shown) [Compound 89] | no significant phytotoxicity
58 | CC(NC(=O)c1sccc1C(C)(C)C)C(C)(C)C (stereo not shown) [Compound 90] | no significant phytotoxicity
59 | CC(NC(=O)c1sccc1C#N)C(C)(C)C (stereo not shown) [Compound 95] | no significant phytotoxicity
60 | Cc1occc1C(=O)N[C@H](C)C(C)C [Compound 96] | no significant phytotoxicity
61 | Cc1occc1C(=O)N[C@@H](C)C(C)C [Compound 101] | no significant phytotoxicity

— patent US11638428B2, “Nematocidal heterocyclic amides” (CORTEVA AGRISCIENCE LLC, priority 2015, dated 2023)
